From publication PMC12775823, “Glucosylceramide regulates depression through activating peroxisome proliferator-activated receptor gamma in dorsal striatum” (Theranostics, 2026)

What was measured:
human PPARγ-full length = molecular target: T1, human PPARγ-full length (Homo sapiens, UniProt P37231); assay: Surface plasmon resonance, full-length hPPARγ; format: binding; details: SPR, steady-state affinity, 25 °C; read-out: equilibrium dissociation constant (KD) for hPPARγ
T1 construct: human PPARγ-full length (Active Motif, USA); purchased Active Motif
T1 sequence (P37231 1-505): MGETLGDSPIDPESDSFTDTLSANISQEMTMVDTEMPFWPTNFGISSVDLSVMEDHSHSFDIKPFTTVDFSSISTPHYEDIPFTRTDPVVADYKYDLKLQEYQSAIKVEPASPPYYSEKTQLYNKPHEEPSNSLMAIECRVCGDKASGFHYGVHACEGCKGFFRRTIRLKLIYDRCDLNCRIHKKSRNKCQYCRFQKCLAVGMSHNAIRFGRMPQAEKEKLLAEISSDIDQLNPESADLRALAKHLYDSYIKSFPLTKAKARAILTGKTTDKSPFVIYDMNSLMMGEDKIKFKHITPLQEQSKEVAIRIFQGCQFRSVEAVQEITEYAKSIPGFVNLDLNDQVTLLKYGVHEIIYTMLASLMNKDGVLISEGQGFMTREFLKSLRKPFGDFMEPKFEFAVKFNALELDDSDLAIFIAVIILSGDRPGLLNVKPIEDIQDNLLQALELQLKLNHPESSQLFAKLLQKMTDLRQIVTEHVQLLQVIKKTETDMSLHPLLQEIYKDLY
Experimental: Prepared human PPARγ-LBD and human PPARγ-full length (Active Motif, USA) were immobilized onto a CM5 sensor chip using amine coupling. Briefly, the protein was diluted to 50 μg/mL in immobilization buffer and covalently attached to the CM5 chip via an Amine Coupling Kit (Cytiva, USA), following the manufacturer's instructions. A channel without immobilized protein was used as a blank control. The positive control, pioglitazone, and the test molecule, GlcCer, were both diluted in running buffer (PBS containing 5% (v/v) DMSO, 3 mM EDTA, and 0.05% (v/v) surfactant P20, pH 7.4). Gradient concentrations of GlcCer were injected over both channels at a flow rate of 30 μL/min, with an association time and dissociation time of 85 s each.

human PPARγ AF1 domain = molecular target: T2, human PPARγ AF1 domain (Homo sapiens, UniProt P37231); assay: Surface plasmon resonance, PPARγ AF1 domain; format: binding; details: SPR
T2 sequence (P37231 31-135 limits assumed): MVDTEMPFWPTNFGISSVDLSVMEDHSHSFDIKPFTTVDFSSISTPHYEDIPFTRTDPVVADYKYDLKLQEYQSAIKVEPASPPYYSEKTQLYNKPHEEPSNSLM

PPARγ = assay: PPRE-luciferase (dual-luciferase) activity assay in N2a cells; format: cell-based; details: N2a cells transfected with wild-type Pparg
Experimental: N2a cells were seeded into 24-well plates and cultured for 24 hours before transfection. A DNA mixture containing the PPRE-luciferase reporter plasmid (0.5 μg), PPARγ/ PPARγ mutation plasmid (0.5 μg) and an internal control plasmid pRL-SV-40 (25 ng) was transfected using lipofectamine 3000 transfection reagent (L3000001, Invitrogen, USA) according to the manufacturer's recommendations. After transfection, the cells were incubated for an additional 48 h.

PPARγ target genes = assay: qRT-PCR of PPARγ target genes in PPARγ-overexpressing N2a cells; format: cell-based; details: 0.1, 1 and 10 μM
[1] = LC-MS of GlcCer levels in dorsal striatum of CRS-induced mice; format: in vivo; details: intra-dorsal striatum infusion of pioglitazone, GlcCer or combination
Experimental: The procedure for the extraction of sphingolipids was established according to the LIPID MAPS protocol with modifications. Briefly, dorsal striatal tissues were added 0.5 mL of MeOH, 0.25 mL of CHCl3 and 7.5 μL of internal standards cocktail (2.5 μM). For sphingolipidomics, 5 μL of internal standards mixture (LM6002, Avanti polar lipids) was added. The mixture was then ultrasonicated for 45 s at room temperature and incubation at 48°C overnight. To avoid potentially interfering glycerolipids, 75 μL of KOH in MeOH (1M) was added, followed by incubation in a heat block at 200 rpm for 2 h at 37 °C. After neutralization, a four-step extraction process was performed to obtain SPL extract for analysis. The supernatant was transferred to a new Eppendorf tube and the resides were added l mL of MeOH and 2 mL of CHCl3, followed by centrifugation at 3800 rpm for 8 min. […] Sphingolipidomics were measured with ultra-high-performance liquid chromatography (UPLC) coupled with hybrid Quadrupole-Orbitrap high resolution mass spectrometry (Q-Exactive-HRMS). […] For […] quantitation, brain tissues were quantified by UPLC-MS/MS using a Q-Exactive-HRMS with UPLC. […] Quantification of […] with various fatty acid chain lengths were achieved using the calibration curve of each GlcCer species with closest number of chain length. […]

D2-Pparg^f/f mice = assay: Behavioral tests in D2-Pparg f/f mice after intra-dorsal striatal microinfusion; format: in vivo; details: microinfusion of GlcCer
Experimental: For intracranial injection, mice were surgically implanted with sterilized guide cannulae in dorsal striatum. Intra-dorsal striatal injection of PDMP (100 μM, 1 μL/injection), pioglitazone (100 μM, 1 μL/injection), UNC (10 μM, 1 μL/injection) was performed 30 min before behavioral test. Mice were intraperitoneally injected with CNO (1 mg/kg/d) before behavioral test.
Elevated plus maze test (EPMT).
Light-dark Transition test (LDT).
Sucrose preference test (SPT).
Forced swimming test (FST).

aged mice = details: oral administration, ref [35]; cited from earlier work

With Glucosylceramide [GlcCer] the Kd (human PPARγ-full length) was 36 ± 2 nM, the Kd (human PPARγ AF1 domain) was 29 ± 3 nM and the “PPARγ activity (dual-luciferase)” value (PPARγ) was “increased”. The “expression of Adipoq and Leptin” value (PPARγ target genes) was “robustly upregulated”, the “expression of adipogenesis-related genes (Srebp-1c, Adrp, Fabp4, Fasn, Cd36)” value (PPARγ target genes) was “little or no effect” and the “GlcCer levels in the dorsal striatum (LC-MS)” value [1] was “increased”. The depression-like behaviors (D2-Pparg^f/f mice) was “failed to alleviate” and the “neuroinflammation and memory deficits” value (aged mice) was “alleviate”.
